“And” between values parts separate entries of the source, which are not always exact repeats. Equal values may be shown once. Inconclusive results and toxic doses are left out.

The source of these data is PubChem BioAssay AID192 (DTP/NCI, 2004).

The subject of the assay is BDF1 mice, B16 melanoma ip, median survival T/C. Put plainly: NCI In Vivo Anticancer Drug Screen. Data for tumor model B16 Melanoma (intraperitoneal) in B6D2F1 (BDF1) mice. Particulars: endpoint: median survival time, higher = longer survival. The method in brief: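 Transplantable tumor model; survival or tumor size measured; reported as T/C, treated over vehicle control.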

[1] abbreviates: dose: 6.25 mg/kg/injection, schedule: Q01DX009 (ip), vehicle: saline with Tween-80.
Setting [2] is: dose: 50.0 mg/kg/injection, schedule: Q01DX009 (ip), vehicle: saline with Tween-80.
[3] abbreviates: dose: 100.0 mg/kg/injection, schedule: Q01DX009 (ip), vehicle: saline with Tween-80.
Setting [4] is: dose: 200.0 mg/kg/injection, schedule: Q01DX009 (ip), vehicle: saline with Tween-80.
[5] abbreviates: dose: 100.0 mg/kg/injection, schedule: Q01DX009 (ip), vehicle: saline.
[6] abbreviates: dose: 200.0 mg/kg/injection, schedule: Q01DX009 (ip), vehicle: saline.
The mark [7] stands for this setting: dose: 400.0 mg/kg/injection, schedule: Q01DX009 (ip), vehicle: saline.
Setting [8] is: dose: 12.5 mg/kg/injection, schedule: Q01DX009 (ip), vehicle: Klucel (hydroxypropylcellulose) (HPC).
The mark [9] stands for this setting: dose: 25.0 mg/kg/injection, schedule: Q01DX009 (ip), vehicle: Klucel (hydroxypropylcellulose) (HPC).
The mark [10] stands for this setting: dose: 50.0 mg/kg/injection, schedule: Q01DX009 (ip), vehicle: saline.
[11] abbreviates: dose: 100.0 mg/kg/injection, schedule: Q01DX009 (ip), vehicle: Klucel (hydroxypropylcellulose) (HPC).
Setting [12] is: dose: 400.0 mg/kg/injection, schedule: Q01DX009 (ip), vehicle: saline with Tween-80.
Where [13] appears, read: dose: 50.0 mg/kg/injection, schedule: Q01DX009 (ip), vehicle: Klucel (hydroxypropylcellulose) (HPC).

`OCCOCC(F)(F)F`: the T/C under setting [1] was 94 % of control and 112 % of control; the T/C (dose: 12.5 mg/kg/injection, schedule: Q01DX009 (ip), vehicle: saline with Tween-80) is 99 % of control and 104 % of control; the T/C (dose: 25.0 mg/kg/injection, schedule: Q01DX009 (ip), vehicle: saline with Tween-80) was 97 % of control and 103 % of control; the T/C under setting [2] was 92 % of control and 105 % of control; the T/C (dose: 75.0 mg/kg/injection, schedule: Q01DX009 (ip), vehicle: saline with Tween-80) was 93 % of control; the T/C under setting [3] was 102 % of control and 103 % of control. The T/C is 88 % of control (dose: 150.0 mg/kg/injection, schedule: Q01DX009 (ip), vehicle: saline with Tween-80); 94 % of control and 105 % of control under setting [4].
With `NCCS(=O)(=O)O`, the T/C by setting is: under setting [5], 105 % of control; under setting [6], 107 % of control; under setting [7], 110 % of control; (dose: 800.0 mg/kg/injection, schedule: Q01DX009 (ip), vehicle: saline) 102 % of control.
For `CC(=O)NC(C=O)C(O)C(O)C(O)C(=O)O` (stereo not drawn) (tested in a mixture with another compound), the T/C runs as follows: (dose: 6.25 mg/kg/injection, schedule: Q01DX009 (ip), vehicle: Klucel (hydroxypropylcellulose) (HPC)) 100 % of control; under setting [8], 107 % of control; under setting [9], 98 % of control.
As to `Cc1cn(C2CC(F)C(CO)O2)c(=O)[nH]c1=O` (stereo not drawn), the T/C is, setting by setting: (dose: 6.25 mg/kg/injection, schedule: Q01DX009 (ip), vehicle: saline) 108 % of control; (dose: 12.5 mg/kg/injection, schedule: Q01DX009 (ip), vehicle: saline) 103 % of control; (dose: 25.0 mg/kg/injection, schedule: Q01DX009 (ip), vehicle: saline) 110 % of control; under setting [10], 115 % of control; under setting [5], 97 % of control.
With `CCOC(=O)NC(C)(C)CC(C)(C)C`, under setting [11], the T/C was 106 % of control.
For the compound `CS(=O)(=O)OCCN(CCOS(C)(=O)=O)c1ccc(C=O)cc1`, the T/C under setting [1] is 170 % of control.
For the compound `CC(C)(C#N)N1CCCCC1`, the T/C by setting is: (dose: 0.03 mg/kg/injection, schedule: Q01DX009 (ip), vehicle: saline) 97 % of control; (dose: 0.07 mg/kg/injection, schedule: Q01DX009 (ip), vehicle: saline) 104 % of control; (dose: 0.15 mg/kg/injection, schedule: Q01DX009 (ip), vehicle: saline) 98 % of control; (dose: 2.5 mg/kg/injection, schedule: Q01DX009 (ip), vehicle: saline) 102 % of control.
Turning to `CCN(C(=O)Nc1ccc(Cl)cc1)c1ccccc1`, the T/C was 94 % of control under setting [3], 97 % of control under setting [4] and 92 % of control under setting [12].
With `OCC1OC(Oc2ccc(O)cc2)C(O)C(O)C1O` (stereo not drawn), the T/C by setting is: under setting [10], 100 % of control; under setting [5], 99 % of control; under setting [6], 96 % of control; under setting [7], 101 % of control.
With `NP(Cl)(c1ccccc1)(c1ccccc1)c1ccccc1`, the T/C runs as follows: (dose: 0.1 mg/kg/injection, schedule: Q01DX009 (ip), vehicle: Klucel (hydroxypropylcellulose) (HPC)) 103 % of control; (dose: 0.2 mg/kg/injection, schedule: Q01DX009 (ip), vehicle: Klucel (hydroxypropylcellulose) (HPC)) 96 % of control; (dose: 0.39 mg/kg/injection, schedule: Q01DX009 (ip), vehicle: Klucel (hydroxypropylcellulose) (HPC)) 100 % of control.
Take `Cn1c2nc3ccccc3c-2nc2ccccc21`: the T/C (dose: 1.56 mg/kg/injection, schedule: Q01DX009 (ip), vehicle: water) was 95 % of control; the T/C (dose: 3.13 mg/kg/injection, schedule: Q01DX009 (ip), vehicle: water) was 96 % of control; the T/C (dose: 6.25 mg/kg/injection, schedule: Q01DX009 (ip), vehicle: other) was 105 % of control; the T/C (dose: 6.25 mg/kg/injection, schedule: Q01DX009 (ip), vehicle: water) is 90 % of control; the T/C (dose: 12.5 mg/kg/injection, schedule: Q01DX009 (ip), vehicle: other) was 104 % of control; the T/C (dose: 25.0 mg/kg/injection, schedule: Q01DX009 (ip), vehicle: other) was 97 % of control. Moreover, the T/C was 87 % of control under setting [13] and 92 % of control (dose: 50.0 mg/kg/injection, schedule: Q01DX009 (ip), vehicle: other).
With `O=C(NC(Cc1ccccc1)C(=O)CCl)OCc1ccccc1` (stereo not drawn), the T/C was 100 % of control under setting [8] and 97 % of control under setting [9].
Consider `Cc1c(CNc2ccc(C(=O)NC(CC(=O)O)C(=O)O)cc2)ccc2nc(N)nc(N)c12` (stereo not drawn), for which the T/C by setting is: (dose: 0.02 mg/kg/injection, schedule: Q01DX009 (ip), vehicle: saline with Tween-80) 94 % of control; (dose: 0.04 mg/kg/injection, schedule: Q01DX009 (ip), vehicle: saline with Tween-80) 94 % of control; (dose: 0.04 mg/kg/injection, schedule: Q01DX009 (ip), vehicle: saline) 103 % of control; (dose: 0.09 mg/kg/injection, schedule: Q01DX009 (ip), vehicle: saline with Tween-80) 86 % of control; (dose: 0.09 mg/kg/injection, schedule: Q01DX009 (ip), vehicle: saline) 100 % of control; (dose: 0.18 mg/kg/injection, schedule: Q01DX009 (ip), vehicle: saline with Tween-80) 97 % of control. For the same compound, the T/C runs as follows: (dose: 0.19 mg/kg/injection, schedule: Q01DX009 (ip), vehicle: saline) 111 % of control; (dose: 0.78 mg/kg/injection, schedule: Q01DX009 (ip), vehicle: saline with Tween-80) 118 % of control.
`CC[N+]1(CC)CC[N+]2(CC1)CC[N+]1(CC[N+](CC)(CC)CC1)CC2`: the T/C by setting is: under setting [10], 94 % of control; under setting [5], 100 % of control; under setting [6], 94 % of control.
Regarding `CCCCNC(=O)Nc1ccccc1Cl`, the T/C was 100 % of control under setting [3], 98 % of control under setting [4] and 98 % of control under setting [12].
As for `CSc1nc(N)nc2c1ncn2C1OC(CO)C(O)C1O` (stereo not drawn), the T/C (dose: 100.0 mg/kg/injection, schedule: Q01DX009 (ip), vehicle: suspension in saline) was 115 % of control and the T/C (dose: 200.0 mg/kg/injection, schedule: Q01DX009 (ip), vehicle: suspension in saline) was 110 % of control.
Turning to `CCCCCCCCCCCCCCCC[N+](C)(C)c1nc(Cl)nc(Cl)n1`, the T/C reads like this: (dose: 2.0 mg/kg/injection, schedule: Q01DX009 (ip), vehicle: saline with Tween-80) 97 % of control; (dose: 4.0 mg/kg/injection, schedule: Q01DX009 (ip), vehicle: saline with Tween-80) 100 % of control; (dose: 8.0 mg/kg/injection, schedule: Q01DX009 (ip), vehicle: saline with Tween-80) 95 % of control.
`Cc1ccc(NC(=O)Nc2ccccc2Cl)cc1Cl`: the T/C is 100 % of control under setting [13] and 104 % of control under setting [11].
For `O=[n+]1ccn2cc3ccccc3cc2c1`, the T/C is, setting by setting: (dose: 3.75 mg/kg/injection, schedule: Q01DX009 (ip), vehicle: saline) 102 % of control; (dose: 7.5 mg/kg/injection, schedule: Q01DX009 (ip), vehicle: saline) 105 % of control.
For the compound `Cc1cccc(/C=N/OCCC(C)C)n1`, the T/C reads like this: under setting [2], 107 % of control; under setting [3], 95 % of control.
For `COc1cccc2c1C(=O)c1c(O)c3c(c(O)c1C2=O)C[C@@](O)(/C(C)=N/NC(=O)c1cccc([N+](=O)[O-])c1)C[C@@H]3OC1CC(N)C(O)C(C)O1` (stereo partly drawn), the T/C was 153 % of control (dose: 2.0 mg/kg/injection, schedule: Q01DX001 (ip), vehicle: water); 158 % of control and 164 % of control (dose: 4.0 mg/kg/injection, schedule: Q01DX001 (ip), vehicle: water); 168 % of control and 178 % of control (dose: 8.0 mg/kg/injection, schedule: Q01DX001 (ip), vehicle: water); 164 % of control and 184 % of control (dose: 16.0 mg/kg/injection, schedule: Q01DX001 (ip), vehicle: water); 95 % of control (dose: 32.0 mg/kg/injection, schedule: Q01DX001 (ip), vehicle: water).
Turning to `COC(=O)CCNCc1ccccc1`, the T/C by setting is: under setting [11], 100 % of control; (dose: 200.0 mg/kg/injection, schedule: Q01DX009 (ip), vehicle: Klucel (hydroxypropylcellulose) (HPC)) 96 % of control; (dose: 400.0 mg/kg/injection, schedule: Q01DX009 (ip), vehicle: Klucel (hydroxypropylcellulose) (HPC)) 93 % of control.
Consider `COc1ccccc1N1C(=O)CSC1=S`, for which the T/C is, setting by setting: under setting [8], 95 % of control; under setting [9], 105 % of control; under setting [13], 87 % of control; under setting [11], 105 % of control.
